Values of other authors as cited in patent publication US20070071706A1, “Lipodissolving dermatological topical preparation” (priority 2005, published 2007).

Details: used as transdermal permeability enhancer / carrier; delivered substance erythromycin; rats

- systemic absorption of the substance being transdermally delivered: good systemic absorption
Structure (SMILES): CC(O)CO (centres unmarked) [propylene glycol]
- local accumulation in the subcutaneous tissue of the substance being transdermally delivered: very negligible and short living subcutaneous accumulation
